We go through five substances from patent publication US20180252712A1, “RECEPTOR FOR NOROVIRUS AND USES THEREOF” (priority 2017, published 2018).

In one data set the test system is MNoV^CW3. The experiment in a line: CRISPR screen in BV2-Cas9 cells, sgRNA enrichment after MNoV^CW3 infection. To be noted: for log2 fold enrichment after MNV infection relative to mock infected cells, CW3 MOI 0.05: MNoV^CW3, MOI 0.05, ten days post-infection; for log2 fold enrichment after MNV infection relative to mock infected cells, CW3 MOI 5: MNoV^CW3, MOI 5, ten days post-infection. The format is cell-based, murine norovirus. How it is done: (§1) BV2 cells were transduced with pXPR_101 (Addgene plasmid 52962) and selected with blasticidin for eleven days. Cas9 activity was assessed by transducing parental BV2 or BV2-Cas9 cells with pXPR_011 (Addgene plasmid 59702), expresses eGFP and a sgRNA targeting eGFP at an MOI<1 [1]. Cells were transduced for 2 days and subsequently, selected for five days with puromycin and the frequency of eGFP expression was assessed by flow cytometry. The mouse ASIAGO sgRNA CRISPR library contains six independent genome wide pools which each pool containing a unique sgRNA targeting each of 20,077 mouse genes. Four ASIAGO pools were independently used to generate the BV2 library (Doench et al submitted). Each ASIAGO pool was delivered by lentiviral transduction of 5×10^7 BV2 cells at an MOI ˜0.2. This equates to 1×10^7 transduced cells, which is sufficient for the integration of each sgRNA 500 independent times. Two days post transduction, puromycin was added to the media and transduced cells were selected for five days. For each experimental condition, 1×10^7 BV2-Cas9 cells containing sgRNAs were seeded in a T175 tissue culture flask. Cells were infected with either MNoV^CW3 or MNoV^CR6 at MOls of 0.05 and 5. Mock infected cells were harvested 48 hrs after seeding and served as a reference for sgRNA enrichment analysis. Ten days post-infection genomic DNA was isolated from surviving cells using a Qiamp DNA mini kit according to manufacturer instructions (Qiagen).
(§2) Illumina sequencing and STARS analysis was performed as described previously (Doench et al, in press). Briefly, genomic DNA was aliquoted into multiple wells of a 96-well plate with up to 10 μg of DNA in 50 μl total volume. A PCR mastermix consisting of ExTaq DNA polymerase (Clontech), ExTaq buffer, dNTP, P5 stagger primer, and water was generated. 40 μl of PCR master mix, and 10 μl of a barcoded primer was added to each well containing 50 μl of DNA. Samples were PCR amplified as follows: 95° C. for 1 min., followed by 28 cycles of 94° C. for 30 sec., 52.5° C. for 30 sec., 72° C. for 30 sec. with a final 10 min. at 72° C. PCR product was purified with Agencourt AMPure XP SPRI beads according to the manufacture's protocol (Beckman Coluter). Samples were sequenced on an Illumina HiSeq 2000. Barcodes in the P7 primer were deconvuluted and the sgRNA sequence was mapped to a reference file of sgRNAs in the ASIAGO library. To normalize for different numbers of reads per condition, read counts per sgRNA were normalized to 10^7 total reads per sample. This normalized value was then log-2 transformed. sgRNAs that were not sequenced were arbitrarily assigned a read count of 1. sgRNA frequencies were then analyzed using STARS software, which is available at broadinstitute.org/rnai/public/software/index (Doench et al, in press). STARS computes a score for each gene of rank-ordered sgRNA hits that was above […] of total sequenced sgRNAs. A STAR score was only assigned to genes that scored above this threshold in at least two of four independent genome wide pools.

Another data set has as its system MNoV^CR6. The experiment in a line: CRISPR screen in BV2-Cas9 cells, sgRNA enrichment after MNoV^CR6 infection. The data set is classed as cell-based, murine norovirus. The following applies: for log2 fold enrichment after MNV infection relative to mock infected cells, CR6 MOI 0.05: MNoV^CR6, MOI 0.05, ten days post-infection; for log2 fold enrichment after MNV infection relative to mock infected cells, CR6 MOI 5: MNoV^CR6, MOI 5, ten days post-infection. The procedure:
as §1, §2

With “GGAAGAGGATGAGCAGAGCA: sgRNA used in screen, no identical CD300 match marked (listed as DNA, chemistry not given here)”, in the data set with MNoV^CW3, the “log2 fold enrichment after MNV infection relative to mock infected cells, CW3 MOI 0.05” value was −6.4 log2 fold enrichment and the “log2 fold enrichment after MNV infection relative to mock infected cells, CW3 MOI 5” value is −6.4 log2 fold enrichment. For the same substance, in the data set with MNoV^CR6, the “log2 fold enrichment after MNV infection relative to mock infected cells, CR6 MOI 0.05” value is −6.4 log2 fold enrichment and the “log2 fold enrichment after MNV infection relative to mock infected cells, CR6 MOI 5” value was −6.4 log2 fold enrichment.
As to “TCAGAGAAAGAAACGAAGAG: sgRNA used in screen, matches CD300lb (listed as DNA, chemistry not given here)”, in the data set on MNoV^CW3, the “log2 fold enrichment after MNV infection relative to mock infected cells, CW3 MOI 0.05” value is on record as −5.5 log2 fold enrichment and the “log2 fold enrichment after MNV infection relative to mock infected cells, CW3 MOI 5” value is given as −5.5 log2 fold enrichment. In the data set on MNoV^CR6, the “log2 fold enrichment after MNV infection relative to mock infected cells, CR6 MOI 0.05” value was −5.5 log2 fold enrichment and the “log2 fold enrichment after MNV infection relative to mock infected cells, CR6 MOI 5” value is recorded as −5.5 log2 fold enrichment.
Turning to “GCTACTTACCTGGGAGGAAA: sgRNA used in screen, matches CD300lh (listed as DNA, chemistry not given here)”, in the data set on MNoV^CW3, the “log2 fold enrichment after MNV infection relative to mock infected cells, CW3 MOI 0.05” value is recorded as −5.9 log2 fold enrichment and the “log2 fold enrichment after MNV infection relative to mock infected cells, CW3 MOI 5” value is on record as −5.9 log2 fold enrichment. Besides, in the data set on MNoV^CR6, the “log2 fold enrichment after MNV infection relative to mock infected cells, CR6 MOI 0.05” value was −5.9 log2 fold enrichment and the “log2 fold enrichment after MNV infection relative to mock infected cells, CR6 MOI 5” value is −5.9 log2 fold enrichment.
Regarding “TAGAGCAGAGAACTGCCACA: sgRNA used in screen, matches CD300ld (listed as DNA, chemistry not given here)”, in the data set on MNoV^CW3, the “log2 fold enrichment after MNV infection relative to mock infected cells, CW3 MOI 0.05” value is −6.7 log2 fold enrichment and the “log2 fold enrichment after MNV infection relative to mock infected cells, CW3 MOI 5” value is −6.7 log2 fold enrichment. Besides, in the data set with MNoV^CR6, the “log2 fold enrichment after MNV infection relative to mock infected cells, CR6 MOI 0.05” value is recorded as −6.7 log2 fold enrichment and the “log2 fold enrichment after MNV infection relative to mock infected cells, CR6 MOI 5” value is −6.7 log2 fold enrichment.
Consider “TACCACGCCACAGGACTCCA: sgRNA used in screen, matches CD300lg (listed as DNA, chemistry not given here)”, for which, in the data set on MNoV^CW3, the “log2 fold enrichment after MNV infection relative to mock infected cells, CW3 MOI 0.05” value was 0.0 log2 fold enrichment and the “log2 fold enrichment after MNV infection relative to mock infected cells, CW3 MOI 5” value was −6.2 log2 fold enrichment. Besides, in the data set on MNoV^CR6, the “log2 fold enrichment after MNV infection relative to mock infected cells, CR6 MOI 0.05” value turned out to be 0.0 log2 fold enrichment and the “log2 fold enrichment after MNV infection relative to mock infected cells, CR6 MOI 5” value is on record as −6.2 log2 fold enrichment.
